Our source for the EC50 values is ChEMBL document CHEMBL3046614, “Overexpression of the sterol 14α-demethylase gene (MgCYP51) in Mycosphaerella graminicola isolates confers a novel azole fungicide sensitivity phenotype” (Pest Manag Sci, 2012).

In brackets after ≈: the same amount, converted by molar mass.

One assay has as its system Zymoseptoria tritici. Put plainly: Fungicidal activity against Zymoseptoria tritici isolate IPO323 without 120 bp insertion expressing wild type CYP51 assessed as fungal growth inhibition. Format: functional, organism-based.
What is called EC50 is the concentration needed to bring the measured effect to its halfway point. As for `CCCN(CCOc1c(Cl)cc(Cl)cc1Cl)C(=O)n1ccnc1` [PROCHLORAZ], the EC50 turned out to be 0.015 µg/mL (≈ 0.0398 µM).

As for `OC(Cc1ccccc1Cl)(Cn1cncn1)C1(Cl)CC1` (stereo not given) [PROTHIOCONAZOLE-DESTHIO], the half-maximal effective concentration (EC50) turned out to be 0.00187 µg/mL (≈ 0.00599 µM).

As to `CC(C)(C)C(O)(CCc1ccc(Cl)cc1)Cn1cncn1` (stereo not given) [TEBUCONAZOLE], the half-maximal effective concentration (EC50) was 0.041 µg/mL (≈ 0.133 µM).

On to `CN(C/C=C/C#CC(C)(C)C)Cc1cccc2ccccc12` [TERBINAFINE], for which the 50% effective concentration (EC50) amounted to 0.047 µg/mL (≈ 0.161 µM).

A further assay relates to Zymoseptoria tritici. Put plainly: Fungicidal activity against Zymoseptoria tritici isolate V18 with 120 bp insertion expressing CYP51 variant with combination of L50S, S188N, I381V, deltaY459/G460 and N513K mutations assessed as fungal growth inhibition. The assay is classed as functional, organism-based.
Take `CCCN(CCOc1c(Cl)cc(Cl)cc1Cl)C(=O)n1ccnc1` [PROCHLORAZ]: the EC50 turned out to be 0.239 µg/mL.

With `OC(Cc1ccccc1Cl)(Cn1cncn1)C1(Cl)CC1` (stereo not given) [PROTHIOCONAZOLE-DESTHIO], the EC50 was 0.126 µg/mL.

Consider `CC(C)(C)C(O)(CCc1ccc(Cl)cc1)Cn1cncn1` (stereo not given) [TEBUCONAZOLE], for which the EC50 amounted to 15.4 µg/mL.

For the molecule `CN(C/C=C/C#CC(C)(C)C)Cc1cccc2ccccc12` [TERBINAFINE], the half-maximal effective concentration (EC50) is 0.053 µg/mL.

In a further assay the test system is Zymoseptoria tritici. Description: Fungicidal activity against Zymoseptoria tritici isolate R10-13 without 120 bp insertion expressing CYP51 variant with combination of L50S, S188N, I381V, deltaY459/G460 and N513K mutations assessed as fungal growth inhibition. The assay is classed as functional, organism-based.
Regarding `CCCN(CCOc1c(Cl)cc(Cl)cc1Cl)C(=O)n1ccnc1` [PROCHLORAZ], the concentration for a half-maximal effect (EC50) was 0.049 µg/mL.

With `OC(Cc1ccccc1Cl)(Cn1cncn1)C1(Cl)CC1` (stereo not given) [PROTHIOCONAZOLE-DESTHIO], the EC50 came out at 0.0111 µg/mL.

With `CC(C)(C)C(O)(CCc1ccc(Cl)cc1)Cn1cncn1` (stereo not given) [TEBUCONAZOLE], the EC50 came to 2.34 µg/mL.

In the case of `CN(C/C=C/C#CC(C)(C)C)Cc1cccc2ccccc12` [TERBINAFINE], the EC50 was found to be 0.082 µg/mL.

In the next assay the test system is Zymoseptoria tritici. Description: Fungicidal activity against Zymoseptoria tritici isolate TAG1-18 with 120 bp insertion expressing CYP51 variant with combination of L50S, S188N, I381V, deltaY459/G460 and N513K mutations assessed as fungal growth inhibition. Format: functional, organism-based.
As to `CCCN(CCOc1c(Cl)cc(Cl)cc1Cl)C(=O)n1ccnc1` [PROCHLORAZ], the half-maximal effective concentration (EC50) is 0.294 µg/mL.

With `OC(Cc1ccccc1Cl)(Cn1cncn1)C1(Cl)CC1` (stereo not given) [PROTHIOCONAZOLE-DESTHIO], the concentration giving a half-maximal response (EC50) turned out to be 0.12 µg/mL.

For the molecule `CC(C)(C)C(O)(CCc1ccc(Cl)cc1)Cn1cncn1` (stereo not given) [TEBUCONAZOLE], the EC50 came to 7.81 µg/mL.

Take `CN(C/C=C/C#CC(C)(C)C)Cc1cccc2ccccc12` [TERBINAFINE]: the EC50 amounted to 0.053 µg/mL.

Another assay relates to Zymoseptoria tritici. Put plainly: Fungicidal activity against Zymoseptoria tritici isolate R03-29 without 120 bp insertion expressing CYP51 variant with combination of L50S, S188N, I381V, deltaY459/G460 and N513K mutations assessed as fungal growth inhibition. The assay is classed as functional, organism-based.
In the case of `CCCN(CCOc1c(Cl)cc(Cl)cc1Cl)C(=O)n1ccnc1` [PROCHLORAZ], the EC50 stood at 0.077 µg/mL.

Take `OC(Cc1ccccc1Cl)(Cn1cncn1)C1(Cl)CC1` (stereo not given) [PROTHIOCONAZOLE-DESTHIO]: the EC50 came to 0.0091 µg/mL.

`CC(C)(C)C(O)(CCc1ccc(Cl)cc1)Cn1cncn1` (stereo not given) [TEBUCONAZOLE]: the concentration for a half-maximal effect (EC50) amounted to 2.7 µg/mL.

For `CN(C/C=C/C#CC(C)(C)C)Cc1cccc2ccccc12` [TERBINAFINE], the EC50 came to 0.063 µg/mL.

The subject of the next assay is Zymoseptoria tritici. Description: Fungicidal activity against Zymoseptoria tritici isolate OP6 without 120 bp insertion expressing CYP51 variant with combination of L50S, S188N, I381V, deltaY459/G460 and N513K mutations assessed as fungal growth inhibition. Format: functional, organism-based.
With `CCCN(CCOc1c(Cl)cc(Cl)cc1Cl)C(=O)n1ccnc1` [PROCHLORAZ], the EC50 is 0.019 µg/mL.

As to `OC(Cc1ccccc1Cl)(Cn1cncn1)C1(Cl)CC1` (stereo not given) [PROTHIOCONAZOLE-DESTHIO], the EC50 came out at 0.0126 µg/mL.

As for `CC(C)(C)C(O)(CCc1ccc(Cl)cc1)Cn1cncn1` (stereo not given) [TEBUCONAZOLE], the EC50 was 1.24 µg/mL.

Consider `CN(C/C=C/C#CC(C)(C)C)Cc1cccc2ccccc12` [TERBINAFINE], for which the EC50 is 0.048 µg/mL.

The next assay relates to Zymoseptoria tritici. Put plainly: Fungicidal activity against Zymoseptoria tritici isolate TAG74-3 with 120 bp insertion expressing CYP51 variant with combination of L50S, S188N, I381V, deltaY459/G460 and N513K mutations assessed as fungal growth inhibition. Format: functional, organism-based.
Take `CCCN(CCOc1c(Cl)cc(Cl)cc1Cl)C(=O)n1ccnc1` [PROCHLORAZ]: the EC50 was found to be 0.624 µg/mL.

`OC(Cc1ccccc1Cl)(Cn1cncn1)C1(Cl)CC1` (stereo not given) [PROTHIOCONAZOLE-DESTHIO]: the half-maximal effective concentration (EC50) was 0.221 µg/mL.

For `CC(C)(C)C(O)(CCc1ccc(Cl)cc1)Cn1cncn1` (stereo not given) [TEBUCONAZOLE], the concentration giving a half-maximal response (EC50) was determined as 20.7 µg/mL.

As for `CN(C/C=C/C#CC(C)(C)C)Cc1cccc2ccccc12` [TERBINAFINE], the EC50 was 0.061 µg/mL.

A further assay relates to Zymoseptoria tritici. Put plainly: Fungicidal activity against Zymoseptoria tritici isolate OP7 with 120 bp insertion expressing CYP51 variant with combination of L50S, S188N, I381V, deltaY459/G460 and N513K mutations assessed as fungal growth inhibition. The assay is classed as functional, organism-based.
For `CCCN(CCOc1c(Cl)cc(Cl)cc1Cl)C(=O)n1ccnc1` [PROCHLORAZ], the EC50 turned out to be 0.229 µg/mL.

For the molecule `OC(Cc1ccccc1Cl)(Cn1cncn1)C1(Cl)CC1` (stereo not given) [PROTHIOCONAZOLE-DESTHIO], the half-maximal effective concentration (EC50) is 0.135 µg/mL.

For `CC(C)(C)C(O)(CCc1ccc(Cl)cc1)Cn1cncn1` (stereo not given) [TEBUCONAZOLE], the EC50 amounted to 8.22 µg/mL.

For the molecule `CN(C/C=C/C#CC(C)(C)C)Cc1cccc2ccccc12` [TERBINAFINE], the EC50 is 0.045 µg/mL.

Another assay concerns Zymoseptoria tritici. Put plainly: Fungicidal activity against Zymoseptoria tritici isolate R03-54 without 120 bp insertion expressing CYP51 variant with combination of L50S, S188N, I381V, deltaY459/G460 and N513K mutations assessed as fungal growth inhibition. The assay is classed as functional, organism-based.
Regarding `CCCN(CCOc1c(Cl)cc(Cl)cc1Cl)C(=O)n1ccnc1` [PROCHLORAZ], the EC50 is 0.025 µg/mL.

`OC(Cc1ccccc1Cl)(Cn1cncn1)C1(Cl)CC1` (stereo not given) [PROTHIOCONAZOLE-DESTHIO]: the EC50 was 0.0055 µg/mL.

Consider `CC(C)(C)C(O)(CCc1ccc(Cl)cc1)Cn1cncn1` (stereo not given) [TEBUCONAZOLE], for which the 50% effective concentration (EC50) was found to be 1.5 µg/mL.
